In US8415312B2, “Compound which is a nystatin derivative” (Biosergen AS, priority 2007, dated 2013):
In brackets after ≈: the same amount, converted by molar mass. Several values for one entry are separate records, joined by “and”; a condition that tells them apart may be missing. Equal values may be shown once.

Assays:
[1] = tested on: Candida albicans ATCC 14053; assay: Antifungal susceptibility study (1), broth microdilution MIC; format: cell-based; details: lowest concentration preventing any visible growth, read at 48 hours, 35° C., RPMI 1640 pH 7.0
Method in brief: (§1)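 Broth microdilution in test medium at pH 7.0 with two-fold compound dilutions (DMSO stocks diluted 50-fold into medium), inoculated with freshly grown yeast cultures. Plates were incubated without agitation at 35° C. for C. albicans or 25° C. for C. humicolus. MIC was taken as the concentration with no visible growth, read at 48 hours.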

[2] = tested on: Cryptococcus humicolus ATCC 9949; assay: as above; format: cell-based; details: lowest concentration preventing any visible growth, read at 48 hours, 25° C., RPMI 1640 pH 7.0
Method in brief: as §1

[3] = tested on: Aspergillus niger ATCC 16404; assay: as above; format: cell-based; details: lowest concentration preventing any visible growth, read at 48 hours, 35° C., RPMI 1640 pH 7.0
Method in brief: (§2)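 Broth microdilution was run at pH 7.0 with compounds diluted from DMSO solutions and mixed 1:1 with conidial inoculum. Spore suspensions were adjusted to OD530 0.09-0.11 for A. niger or 0.15-0.17 for F. oxysporum, then diluted 1:50. Plates were incubated at 35° C without agitation, and MIC was read at 48 hours as absence of visible growth.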

[4] = tested on: Fusarium oxysporum VKM F-140; assay: as above; format: cell-based; details: lowest concentration preventing any visible growth, read at 48 hours, 35° C., RPMI 1640 pH 7.0
Method in brief: as §2

[5] = tested on: Candida albicans ATCC 10231; assay: Antifungal susceptibility study (2), MIC50 by OD490 growth; format: cell-based; details: 50% growth inhibition from regression curve, M19 medium without NaCl, 30° C.
Protocol: The anti-fungal activity of several of the nystatin derivatives was further investigated. […] The anti-fungal activity of a number of the nystatin derivatives was therefore determined in a method which is designed to be more sensitive.
The test organism used for the further testing of polyene macrolide bioactivity was Candida albicans ATCC 10231, grown in 120 μl of standard M19 medium without NaCl (with an inoculum of 1000 cfu per well) and 30 μl of diluted polyene macrolide samples. The antibiotics were diluted in MeOH in series ensuring a spectrum of concentrations which yielded results ranging from complete growth inhibition to no inhibition of the test organism. The test organism cultures with antibiotic dilutions were incubated in 96-well microtiter plates at 30° C. without shaking, and growth was measured as OD490 after 12, 14 and 16 hours on a SpectraMax Plus microtiter plate reader. OD was plotted against antibiotic concentration, and MIC50 was estimated from the regression curve at 50% growth inhibition.

erythrocytes = assay: In vitro toxicity study, haemolysis (Tables 11 and 12); format: cell-based, horse; details: for Haemolysis of erythrocytes, Mean ± S.E.M.: 25 μM (Table 12)
Protocol: The toxicity of various nystatin derivatives was tested at 2 and 5 μg/mL and at 25 μM.
Compounds were dissolved in DMSO at 5 mg/mL and 0.1 mL samples with different concentrations were prepared in DMSO. The samples were mixed with 0.9 mL PBS buffer containing 2.5% horse blood (PBS-HB; kept on ice) and incubated at 37° C. for 30 min without agitation.
Cells were pelleted by centrifugation at 5000 rpm for 5 min and haemolysis was evaluated by measuring OD545. 100% haemolysis was defined as the OD545 value obtained from a suspension of 2.5% horse blood in distilled water.

[6] = tested on: yeasts and filamentous fungi (moulds); assay: Antifungal susceptibility study (1), overall comparison across the test organisms; format: cell-based; details: Table 5 MICs
Protocol: The organisms used for susceptibility testing were: Candida albicans ATCC 14053, Cryptococcus humicolus ATCC 9949, Aspergillus niger ATCC 16404 and Fusarium oxysporum VKM F-140 (=CMI, IMI 90473). Organisms were stored on potato dextrose agar […] 50% glycerol solution at -70° C. For short-term storage, stock cultures were stored on agar […] 4° C. The cultures of yeasts were sub-cultured onto Sabouraud dextrose (SAB) agar and incubated for 24 hours at 35° C. (Candida albicans) or for 48 hours at 25° C. (Cryptococcus humicolus) to obtain a freshly grown pure culture. The cultures of moulds were sub-cultured onto potato dextrose agar and incubated for 7 days at 35° C. […] (Fusarium oxysporum) to ensure maximum sporulation. Sterile 96-well flat-bottomed microtitration plates were used for testing. 100 μl of diluted inocula were dispensed into each microdilution well containing 100 μl of the double dilutions of compounds. Drug-free and yeast/mould-free controls were included. Microdilution trays were incubated at 35° C. (Candida albicans and moulds) or 25° C. (Cryptococcus humicolus) without agitation and observed for the presence or absence of visible growth. […] Minimal inhibitory concentrations (MICs) were read at 48 hours.

human blood erythrocytes = assay: In vitro toxicity study, haemolysis (Table 10); format: cell-based; details: for Haemolysis of human blood erythrocytes: individual blood samples # 1-3
[7] = tested on: mice (C57B1/6xDBA/2)F1 B6D2F1; details: single injection into tail vein, probit analysis
Protocol: (§3) Male mice of hybrids of first generation (C57B1/6xDBA/2)F1 B6D2F1, weight 20-22 g., received from the Central farm. “Kryukovo” of Russian Academies of Medical Science (RAMS) were used. Animals were maintained in a vivarium in plastic cages (with hardwood bedding in environmentally controlled conditions: 24±1° C., 12/12 hours light/dark cycle) on a standard diet of bricketed forages with easy access to drinking water (ad libitum). After a 2-week quarantine period, healthy animals were used in experimental work.
(§4) The solutions were prepared as follows: dry antibiotic substances (5 mg) were mixed with dry sodium deoxycholate (4.1 mg) in a sterile glass vial. 10 mL of phosphate buffer (NaH2PO4—1.59 g; Na2HPO4—0.96 g; H2O—to 100 mL) was added to the mix and the suspension was immediately subjected to vigorous shaking for 10 minutes until homogeneous suspensions were formed.
Preparations of amphotericin B and S44HP were also prepared in the same way.
The antibiotic preparations were singly injected into the mice's tail vein within 1-1.5 hours after the preparation of solutions. […] Each antibiotic was used in a range of doses resulting in 0% to 100% lethality and a minimum of 3 intermediate doses. Animals were randomized into groups, each containing 6 mice.

[8] = tested on: Candida albicans (strain 14053 ATCC); assay: In vivo antifungal activity, kidney burden in infected mice; details: colonies per 1 g of kidney tissue, day 5, individual mice
Protocol: as §3, §4
Animals were infected intravenously with Candida albicans culture at a dose of 1.0 million CFU/mouse (volume 0.1 mL). 30 minutes after infection, the antifungal agents were introduced intravenously into the mice at various doses in a volume of 0.2 mL (at a rate of 0.2 mL/30 second). Each dose was administered daily for four days including the day of infection (0, 1, 2 and 3 days).
As a control, there was a group of untreated mice (infected in the same way with Candida albicans). Also there was a “placebo” group of non-infected animals which were intravenously administered (in the same volume as antifungal agent preparations) 0.2 mL of solvent (phosphatic buffer +5% glucose (1:1)).
On the 5th day of experiment, mice were weighed and euthanized (killed) by a cervical dislocation. Then, in sterile conditions, the Candida albicans burden of each mouse was determined by counting of viable homogenates from the kidneys. The kidneys were removed aseptically and weighed, then pounded in porcelain mortars with sterile corundum. Dilutions of the resulting suspensions were prepared and sowed on Petri dishes with agar Saburo, incubated for 24 hours at a temperature of 35° C. Developed colonies of Candida albicans were then counted and their quantity calculated on the basis of 1 g of kidney tissue.

[9] = 25 μM, individual blood samples (Table 12)

SMILES | MIC Candida albicans ATCC 14053 [1] [µg/mL] | MIC Cryptococcus humicolus ATCC 9949 [2] [µg/mL] | MIC Aspergillus niger ATCC 16404 [3] [µg/mL] | MIC Fusarium oxysporum VKM F-140 [4] [µg/mL] | MIC50 [5] [µg/mL] | Haemolysis of erythrocytes, Mean ± S.E.M. (erythrocytes) [%] | Haemolysis of erythrocytes (erythrocytes; [9]) | anti-fungal activity compared with Amphotericin B and S44HP [6] | Haemolysis of human blood erythrocytes, MEAN ± SE (human blood erythrocytes; 2 μg/mL) [%] | Haemolysis of human blood erythrocytes (human blood erythrocytes; 2 μg/mL) | Haemolysis of human blood erythrocytes, MEAN ± SE (human blood erythrocytes; 5 μg/mL) [%] | Haemolysis of human blood erythrocytes (human blood erythrocytes; 5 μg/mL) | Haemolysis of erythrocytes, Mean ± SE (erythrocytes; 5 μg/mL (Table 11)) [%] | Haemolysis of erythrocytes (erythrocytes; 5 μg/mL, individual blood samples # 1-3 (Table 11)) | LD50 [7] [mg/kg] | MTD [7] [mg/kg] | Number of Colonies ([8]; 0.08 mg/kg × 4/24 i.v.) | Number of Colonies ([8]; 0.15 mg/kg × 4/24 i.v.) | Number of Colonies ([8]; 0.3 mg/kg × 4/24 i.v.) | Number of Colonies ([8]; 0.6 mg/kg × 4/24 i.v.)
CCOC(=O)CNC(=O)C1C(O)CC2(O)CC(O)C(O)CCC(O)CC(O)CC(O)CC(=O)OC(C)C(C)C(O)C(C)C=CC=CC=CC=CC=CC=CC=CC(OC3OC(C)C(O)C(N)C3O)CC1O2 (stereo not shown) [Compound 9] | 1 (≈ 0.991 µM) | 1 (≈ 0.991 µM) | 2 (≈ 1.98 µM) | 4 (≈ 3.96 µM) | 0.13 (≈ 0.129 µM) | 18.4 ± 1.9 | 18.0% and 16.7% and 22.4% and 25% and 16.2% and 12.2% | comparable anti-fungal activity to Amphotericin B and S44HP |  |  |  |  |  |  |  |  |  |  |  | 
COC(=O)C(CO)NC(=O)C1C(O)CC2(O)CC(O)C(O)CCC(O)CC(O)CC(O)CC(=O)OC(C)C(C)C(O)C(C)C=CC=CC=CC=CC=CC=CC=CC(OC3OC(C)C(O)C(N)C3O)CC1O2 (mixture of isomers) [Compound 14] | 1 | 1 | 2 | 4 |  |  |  | comparable anti-fungal activity to Amphotericin B and S44HP | 2.5 ± 0.07 | 2.7% and 2.5% (2×) | 4.9 ± 0.2 | 4.8% and 4.5% and 5.3% |  |  |  |  |  |  |  | 
CC1C=CC=CC=CC=CC=CC=CC=CC(OC2OC(C)C(O)C(N(CCCN)CCCN)C2O)CC2OC(O)(CC(O)C(O)CCC(O)CC(O)CC(O)CC(=O)OC(C)C(C)C1O)CC(O)C2C(=O)O (stereo not shown) [Compound 22] | 1 (≈ 0.963 µM) | 1 (≈ 0.963 µM) | 1 (≈ 0.963 µM) | 1 (≈ 0.963 µM) | 0.07 (≈ 0.0674 µM) |  |  | comparable anti-fungal activity to Amphotericin B and S44HP |  |  |  |  |  |  |  |  |  |  |  | 
CC1C=CC=CC=CC=CC=CC=CC=CC(OC2OC(C)C(O)C(N)C2O)CC2OC(O)(CC(O)C(O)CCC(O)CC(O)CC(O)CC(=O)OC(C)C(C)C1O)CC(O)C2C(=O)N1CCN(CCO)CC1 (stereo not shown) [Compound 15] | 1 (≈ 0.965 µM) | 2 (≈ 1.93 µM) | 2 (≈ 1.93 µM) | 4 (≈ 3.86 µM) | 0.20 (≈ 0.193 µM) |  |  |  |  |  |  |  | 2.6 ± 0.1 | 2.8% and 2.4% and 2.7% |  |  |  |  |  | 
COC(=O)C(CO)NC(=O)C1C(O)CC2(O)CC(O)C(O)CCC(O)CC(O)CC(O)CC(=O)OC(C)C(C)C(O)C(C)C=CC=CC=CC=CC=CC=CC=CC(OC3OC(C)C(O)C(N)C3O)CC1O2 (stereo not shown) [Compound 13] | 1 (≈ 0.975 µM) | 1 (≈ 0.975 µM) | 1 (≈ 0.975 µM) | 4 (≈ 3.9 µM) |  |  |  | comparable anti-fungal activity to Amphotericin B and S44HP | 3.7 ± 0.6 | 3.3% and 3.0% and 4.9% | 14.5 ± 0.5 | 15.5% and 14% and 14.2% |  |  |  |  |  |  |  | 
C[C@@H]1[C@H](O)[C@@H](C)/C=C/C=C/C=C/C=C/C=C/C=C/C=C/[C@H](O[C@@H]2O[C@H](C)[C@@H](O)[C@H](N)[C@@H]2O)C[C@@H]2O[C@](O)(C[C@@H](O)[C@H](O)CC[C@@H](O)C[C@@H](O)C[C@@H](O)CC(=O)O[C@H]1C)C[C@H](O)[C@H]2C(=O)O [Compound S44HP, reference compound] | 1 (≈ 1.08 µM) | 1 (≈ 1.08 µM) | 1 (≈ 1.08 µM) | 4 (≈ 4.33 µM) | 0.12 (≈ 0.13 µM) |  |  |  |  |  |  |  |  |  | 2.05 | 0.64 | 2.7 × 10^4 and 8.0 × 10^4 and 8.2 × 10^4 | 8.0 × 10^3 and 6.4 × 10^3 and 1.6 × 10^4 | 2.7 × 10^3 and 9.4 × 10^3 and 1.3 × 10^4 | 2.5 × 10^3 and 8.8 × 10^3 and 1.2 × 10^3
CC1C=CC=CC=CC=CC=CC=CC=CC(OC2OC(C)C(O)C(NCC3(O)OCC(O)C(O)C3O)C2O)CC2OC(O)(CC(O)C(O)CCC(O)CC(O)CC(O)CC(=O)OC(C)C(C)C1O)CC(O)C2C(=O)O (single isomer, unassigned) [Compound 17] | 1 (≈ 0.921 µM) | 1 (≈ 0.921 µM) | 2 (≈ 1.84 µM) | 8 (≈ 7.36 µM) |  | 2.4 ± 0.6 | 1.7% (2×) and 2.1% and 0.8% and 3.3% and 4.8% |  |  |  |  |  |  |  |  |  |  |  |  | 
CC1C=CC=CC=CC=CC=CC=CC=CC(OC2OC(C)C(O)C(N)C2O)CC2OC(O)(CC(O)C(O)CCC(O)CC(O)CC(O)CC(=O)OC(C)C(C)C1O)CC(O)C2C(=O)NC1C(O)OC(CO)C(O)C1O (stereo not shown) [Compound 16] | 1 (≈ 0.921 µM) | 1 (≈ 0.921 µM) | 2 (≈ 1.84 µM) | 8 (≈ 7.37 µM) |  |  |  |  | 2.4 ± 0.12 | 2.3% and 2.2% and 2.6% | 3.1 ± 0.14 | 3.1% and 2.9% and 3.4% |  |  |  |  |  |  |  | 
